Data: a melting point compilation (Tetko et al.; mined from patent text by program, amines drawn as free bases though some values may be those of a salt)

Question: Which melting point does the source give for `CON=Cc1ccc(-c2ccccc2NC(=O)c2c(C)nn(C)c2F)cc1F` here?
Answer: Its melting point is 158 to 161 °C.

Question: With `COc1nsnc1S(C)(=O)=O` as the molecule, how does the melting point read?
Answer: The melting point was 110 to 112 °C.

Question: With `O=C(Nc1cccc(NC2=CC(=O)c3ccccc3C2=O)c1)c1ccccc1` as the molecule, how does the melting point read?
Answer: Its melting point is 185 °C.

Question: Which melting point does the source give for `Clc1ccccc1COc1c(Cl)cc(OCC=C(Br)Br)cc1Cl` here?
Answer: Its melting point is 83.5 °C.

Question: With `CNc1nnc(-c2ccc3occ(-c4ccc(OC(F)(F)F)cc4)c3c2)o1` as the molecule, how does the melting point read?
Answer: The melting point was 184 to 185 °C.

Question: For `O=C(CNC(=O)C(Cc1ccc(OCc2ccccc2)cc1)NC(=O)OCc1ccccc1)Nc1n[nH]c(=S)s1` (stereo not given), which melting point is on record?
Answer: The melting point was 201 to 202 °C.

Question: Which melting point does the source give for `Nc1cccc(C(=O)Nc2ccccc2)c1` here?
Answer: The melting point was 118 to 120 °C.

Question: Which melting point does the source give for `CC(C)(C)CCN[C@@H](CC(=O)O)C(=O)O` here?
Answer: Its melting point is 184 to 186 °C.

Question: With `CCOc1ccc(-c2ccc3c(c2)C=C(C(=O)OC)CCN3)cc1` as the molecule, how does the melting point read?
Answer: The melting point was 157 to 158 °C.

Question: For `CCCCOc1ccccc1-c1ccc(C(N)=O)c(=O)[nH]1`, which melting point is on record?
Answer: Its melting point is 190 to 191 °C.

Question: For `C=CCc1c(O)ccc2c1C(CCNC(=O)CC)CN2C=O` (stereo not given), which melting point is on record?
Answer: The melting point was 173 to 175 °C.

Question: For `NC(=O)C1=NN(c2cccc(COc3ccccc3)c2)C(c2ccccc2F)N1` (stereo not given), which melting point is on record?
Answer: Its melting point is 176 to 178 °C.

Question: With `CCCCCCCCCCCCNC(=O)C(CC(=O)O)Sc1nc2ccccc2s1` (stereo not given) as the molecule, how does the melting point read?
Answer: Its melting point is 117 to 121 °C.

Question: For `CCCc1c(OCC2(O)CCCCC2Sc2ccc(C(=O)CCC(=O)O)cc2)ccc(C(C)=O)c1O` (stereo not given), which melting point is on record?
Answer: Its melting point is 55 to 57 °C.

Question: Which melting point does the source give for `O=C(O)c1ccc(-c2cc(-c3ccccc3)on2)cc1` here?
Answer: The melting point was 297 to 298 °C.

Question: Which melting point does the source give for `CCCCCC(=O)c1ncc(S(N)(=O)=O)s1` here?
Answer: Its melting point is 124 to 125 °C.

Question: Which melting point does the source give for `Cc1ccc(S(=O)(=O)OCCOc2ccc3[nH]nc(S(=O)(=O)c4ccccc4)c3c2)cc1` here?
Answer: The melting point was 174 to 177 °C.

Question: Which melting point does the source give for `CCc1cc(NCc2ccc(-c3ccccc3-c3nnn[nH]3)cc2)n2ncc(Cl)c2n1` here?
Answer: The melting point was 136 to 138 °C.

Question: With `Cc1cccc2c1[nH]c1c(C(=O)O)cccc12` as the molecule, how does the melting point read?
Answer: The melting point was 286 °C.

Question: Which melting point does the source give for `CCn1ncc2c3onc(-c4cccc(Cl)c4)c3cnc21` here?
Answer: The melting point was 178 to 179 °C.

Question: For `CN(C)c1ccc(C(N)=NNc2ccc([N+](=O)[O-])cc2)cc1`, which melting point is on record?
Answer: Its melting point is 174 °C.

Question: With `COC1=C(Br)C(=O)O/C1=C\c1ccccc1C(F)(F)F` as the molecule, how does the melting point read?
Answer: The melting point was 136 to 138 °C.

Question: For `CC(C)n1nc(C(Cl)C(=O)c2ccccc2)ccc1=O` (stereo not given), which melting point is on record?
Answer: The melting point was 86.5 to 87.5 °C.

Question: Which melting point does the source give for `CCCCCCCCCCc1ccc2cc(/C=C/c3cc4ccc(CCCCCCCCCC)cc4cc3SC)c(SC)cc2c1` here?
Answer: The melting point was 117 to 118 °C.

Question: Which melting point does the source give for `Cc1ccc(C(N)=O)cc1Br` here?
Answer: The melting point was 178 to 179 °C.

Question: Which melting point does the source give for `COc1cccc(-c2ccnc(Nc3cc(OC)c(OC)c(OC)c3)n2)c1` here?
Answer: The melting point was 155 to 156 °C.

Question: For `O=C1CC(CP(=O)(c2ccccc2)c2ccccc2)O1` (stereo not given), which melting point is on record?
Answer: Its melting point is 154 to 155 °C.

Question: With `Cn1cc(-c2ccc3c(ccn3-c3ccc(F)cc3)c2)cn1` as the molecule, how does the melting point read?
Answer: Its melting point is 144 to 145 °C.

Question: With `CC(=O)N1CCC(N(C)S(C)(=O)=O)CC1` as the molecule, how does the melting point read?
Answer: The melting point was 132 °C.

Question: For `CCCn1c(=O)c2nc(C(=O)O)cn2c2ccccc21`, which melting point is on record?
Answer: Its melting point is 232 to 234 °C.

Question: Which melting point does the source give for `COc1ccc2cc(-c3ccc(S(C)=O)cc3)ccc2n1` (stereo not given) here?
Answer: The melting point was 164 to 166 °C.

Question: With `O=C1CC(c2cccc3oc4c(c23)CCCC4)CC(=O)O1` as the molecule, how does the melting point read?
Answer: Its melting point is 139 to 140 °C.

Question: For `COc1cc(C=Cc2ccccc2)cc(OC)c1OC`, which melting point is on record?
Answer: The melting point was 108 °C.

Question: Which melting point does the source give for `Cn1cc(C(=O)O)c(=O)c2sc(-c3ccccc3)cc21` here?
Answer: The melting point was 290 to 292 °C.

Question: With `COc1ccc2[nH]c(C(=O)Nc3ccc(CCCN(C)Cc4ccc(OC)c(OC)c4)cc3)cc2c1` as the molecule, how does the melting point read?
Answer: Its melting point is 80 °C.

Question: With `Cc1cccc(-c2nc3ccc(Cl)nn3c2-c2ccnc(Nc3ccc(F)cc3C)c2)c1` as the molecule, how does the melting point read?
Answer: The melting point was 191 to 192 °C.

Question: With `CCCCCCOc1ccc(C(=O)NCCN(O)C(N)=O)cc1` as the molecule, how does the melting point read?
Answer: The melting point was 148 to 151 °C.

Question: Which melting point does the source give for `CCOC(=O)c1ccc(N2C(=O)CCC2CO)c(NC(=NC(=O)OC(C)(C)C)NC(=O)OC(C)(C)C)c1` (stereo not given) here?
Answer: The melting point was 104 to 110 °C.

Question: Which melting point does the source give for `CC(CC(=O)N1CCCC1)Sc1cc(C(C)(C)C)c(O)c(C(C)(C)C)c1` (stereo not given) here?
Answer: The melting point was 95 to 99 °C.

Question: With `CC(C)(C)C(=O)NCc1cccs1` as the molecule, how does the melting point read?
Answer: The melting point was 64 to 65 °C.

Question: Which melting point does the source give for `COc1cccc(C(=O)N(C)Cc2cccc(-c3ccc(CC4SC(=O)NC4=O)cc3)c2)c1` (stereo not given) here?
Answer: The melting point was 173 °C.

Question: With `CC(=O)NCCCCn1cnc2c(N)nc(C)c(C)c21` as the molecule, how does the melting point read?
Answer: Its melting point is 217 to 219 °C.

Question: For `Cc1nc(-c2cc3cc(OCCNC[C@H](O)c4cccc(Cl)c4)ccc3o2)cs1`, which melting point is on record?
Answer: Its melting point is 127 to 129 °C.

Question: Which melting point does the source give for `COc1ccc(-n2c(=O)cc(C(F)(F)F)n(C)c2=O)c2c1CC(C)(C)O2` here?
Answer: Its melting point is 201 to 203 °C.

Question: With `N#CCC(=O)Nc1cc(Cl)c(Cl)cc1[N+](=O)[O-]` as the molecule, how does the melting point read?
Answer: The melting point was 156 to 158 °C.

Question: For `Cc1nsc2ccc(-n3c(=O)c(Cl)c(C(F)(F)F)n(C)c3=O)cc12`, which melting point is on record?
Answer: Its melting point is 252 to 254 °C.

Question: Which melting point does the source give for `CC1CN(c2c(F)cc3c(=O)c(C(=O)O)cn(C4CC4)c3c2Cl)CC1CN` (stereo not given) here?
Answer: Its melting point is 235 to 238 °C.

Question: With `C=CCNc1nc(NCC=C)c2scc(-c3ccccc3)c2n1` as the molecule, how does the melting point read?
Answer: The melting point was 98 to 100 °C.

Question: For `O=C(Nc1ccccc1F)OC1CN2CCC1CC2` (stereo not given), which melting point is on record?
Answer: The melting point was 124 to 126 °C.

Question: Which melting point does the source give for `CCOc1ccc(C2=NNC(=O)[C@H]3CCCC[C@@H]23)cc1OCC` (relative stereo) here?
Answer: Its melting point is 156 to 157 °C.
